Data set [1] concerns Brugia pahangi female worms. Nature of the data set: Ex vivo microfilarial release and embryograms of female worms from treated gerbils. Format: in vivo. The note with it: females from gerbils treated IP 1 mg/kg. On the procedure: To test the effects of the compounds on female worm fertility, all surviving female worms were examined ex vivo to quantify the amount of mf released and profile the various stages of embryonic development within the uteri of individual female worms. After necropsy, female worms were incubated in individual wells of a 24-well plate with 2 mL Brugia culture media at 37 °C and 5% CO2. After 24 h, the number of mf released by each adult female was determined by counting the mf in a 0.5 mL sample of the media and multiplying by 4 to calculate the total number of mf. Additionally, embryogram analyses on the individual female worms was performed as described. […] The embryonic developmental stages (eggs, embryos, pre-mf and mf) were determined in two 10 μL aliquots using a compound microscope and hemocytometer. A minimum of 200 events were assessed from each female worm and at least 3 females were analyzed per animal from at least 3 animals per treatment group. The intra-uterine embryogram was expressed as the relative proportions of different stages of development: eggs, embryos, pre-mf, stretched mf and deformed embryos in the total number of events.
Worm burden, peritoneal mf counts, overnight mf sheds and qPCR data were analyzed using a Kruskal–Wallis test followed by Dunn’s multiple comparison. […] All statistical analyses were determined using Prism 8 version 8.2.0(272).

Data set [2] concerns O. ochengi mf. Nature of the data set: O. ochengi microfilariae motility assay. The class given is cell-based, Onchocerca ochengi. The note with it: Onchocerca ochengi, 120 h; 10 µM, Day 5. On the procedure: (§1) To assess the effects of the compounds on O. ochengi mf, the mf were harvested from infected cow skin and cultured (10–15 mf per well) in 100 µL media in 96-well plates with a confluent feeder layer of monkey kidney epithelial cells (MK2) as previously described. […] All compounds were also counter-screened with L. loa mf collected from infected individuals with approval from the University of Buea (IRB approval # 964-19). Mf were separated from blood cells using a Percoll gradient as previously described and set up for assays (10–15 mf per well).

Data set [3] deals with Loa loa mf. Nature of the data set: Loa loa microfilariae motility counter-screen. Format: cell-based. The note with it: Loa loa, 120 h, Day 5. Here is the method:
as §1
(Counterscreens check selectivity or assay interference.)

For data set [4], the system named is O. volvulus pre-adult L5. Nature of the data set: O. volvulus pre-adult (Ov L5) motility assay. The class given is cell-based, Onchocerca volvulus. The note with it: Onchocerca volvulus, Day 36 @ 1 µM; 14 days drug then washout. On the procedure: O. volvulus adult male and female worms, which can only be obtained from infected individuals, are not readily accessible for ex vivo studies. Moreover, since there is no small animal model that can maintain infections by O. volvulus, a recently developed in vitro system was used to evaluate the macrofilaricidal effects on pre-adult worms. All compounds except for 04 were tested in this O. volvulus pre-adult/L5 motility and viability assay.
Briefly, Ov L3 larvae were cultured to the pre-adult/L5 stage in vitro as described by Voronin et al., 2019 [45]. Once larvae reached the L5 stage (after at least 70 days in culture), 8–10 Ov L5 were moved to new transwell inserts in a 24-well plate containing 0.5 mL Ov L4-CMS media seeded with a 3 × 10^4/well Human Umbilical Vein Endothelial Cells (HUVEC) monolayer. Duplicate wells were treated with 1 and/or 10 µM of compound. Ov L5 were exposed to compounds for 14 days (exchanged 50% of media with fresh compound every two days) and then cultured with new media without compound, exchanging 50% of media every 2–3 days, up to day 36. Control Ov L5 were treated with 0.05% DMSO. Concentrations were chosen based on activity in the B. pahangi female motility assay. Motility was assessed visually and ranked on a 0–100% scale every 2–3 days over the course of the assay. At the end of the motility assay, Ov L5 viability was measured by 3-(4,5-dimethylthiazol-2-yl)-2,5-diphenyltetrazolium bromide (MTT) assay. Ov L5 were incubated with 0.1% MTT in PBS at 37 °C for 1 h then visually inspected for blue coloration indicating MTT reduction. Worms were considered dead if <50% of the worm was stained blue, and worms were considered alive if >50% of the worm was stained blue.

A short description of data set [5]: in vitro. The settings on record: dog, MDCK-MDR1. On the procedure:
Permeability assays were conducted using 5 µM of each test compound with digoxin as a control. […] electrical resistance was used to verify the integrity of the MDCK-MDR1 monolayer. After compound addition, plates were incubated at 37 °C with 5% CO2 for 1 h. Samples were analyzed by LC–MS/MS and net flux ratio was calculated using basal-to-apical and apical-to-basal permeability.

The test system of data set [6] is Brugia pahangi. Nature of the data set: Brugia pahangi/gerbil model of infection: worm and peritoneal mf counts at necropsy. The settings on record: gerbil, 1 mg/kg IP once a day for 5 days, necropsy 13 weeks post-first dose; mean (SEM). The class given is in vivo. Here is the method:
Male Mongolian gerbils 50–60 g, 5–7 weeks in age (Meriones unguiculatus, Charles River Laboratories International, Inc., Wilmington, MA, USA) were injected intraperitoneally (IP) with 200 third-larval stage B. pahangi and treated a minimum of 3 months later when larvae developed into adult worms.
Animals were given IP doses of 1 mg/kg once a day for 5 days based on in vivo studies by Jones et al., 2009 [14] and gerbil PK analyses. Compounds are light sensitive and were shielded from light during formulation. Animals were necropsied 13 weeks post-first dose, and peritoneal cavities were washed with 100 mL of PBS to collect adult worms and mf that had been released from female worms. Adult worms were separated by sex, counted, and processed for subsequent analyses. Mf from the peritoneal cavities were quantified by mixing peritoneal wash 9:1 (v/v) with 0.04% methylene blue:water and counted using an inverted microscope.
Worm burden, peritoneal mf counts, overnight mf sheds and qPCR data were analyzed using a Kruskal–Wallis test followed by Dunn’s multiple comparison. To determine significant differences in embryograms, a two-way ANOVA was conducted with a Dunnett’s multiple comparisons test, and significance levels were determined based on comparisons with vehicle treated animals. All statistical analyses were determined using Prism 8 version 8.2.0(272).

For data set [7], the system named is O. volvulus third-stage larvae (L3). In words: O. volvulus L3 to L4 molting assay. The class given is cell-based, Onchocerca volvulus. The note with it: Day 6, read-out: O. volvulus L3 Inhibition of Molting Day 6 IC50. On the procedure: O. volvulus, like other nematodes, undergo molts during their larval stages as they develop into the adult form. […] The molting assay tests the potency of compounds to prevent the L3 from molting to the L4 stage in vitro. […] Briefly, 5–10 Ov L3 collected from infected Simulium blackflies and frozen in liquid nitrogen were thawed and plated in 96-well plates seeded with 0.2 × 10^6 normal human peripheral blood mononuclear cells (PBMCs) in 100 µL complete medium containing 20% heat inactivated FBS and treated with compounds at 10, 3, 1, 0.3, 0.1 and 0.03 μM. L3 exposed to 0.5% DMSO or complete media only were run as negative controls. Larvae were incubated at 37 °C with 5% CO2, and molting was determined by examining the wells for highly motile L4 larvae and empty L3 casts after 6 days in culture.

Entries after “also recorded” stand apart in the source; their conditions may differ. Where two headings read alike, the source gives them in different places.

Regarding `Cc1ccc2c(ccc(/C=C/c3c(C)nn(-c4ccccc4)c3C)[n+]2C)c1.[I-]` [Analog 06, 2-[(E)-2-(3,5-dimethyl-1-phenyl-1H-pyrazol-4-yl)ethenyl]-1,6-dimethylquinolin-1-ium iodide], in data set [1], the “Deformed embryos in gonads of female worms (embryogram) vs vehicle” value is reported as “statistically significant increase in the number of deformed embryos” and the “Mf released by female worms after 24 h ex vivo (overnight shed) vs vehicle” value was “significantly lower numbers of mf; also recorded: significantly reduced”. In addition, the inhibition (usually the share of the control response that was lost under treatment) at 10 µM in data set [2] worked out at 46%. The molecule further returned an inhibition at 10 µM in data set [3] of 88%. Also, the inhibition at 1 µM in data set [4] was above 90%. In addition, in data set [5], the apparent permeability from apical to basolateral (Papp A→B) (usually the apparent permeability from the apical to the basolateral side of a cell layer) is 0.5 ×10⁻⁶ cm/s and the Papp B→A – broadly, the apparent permeability from the basolateral to the apical side of a cell layer – was determined as 12.1 ×10⁻⁶ cm/s. For the same molecule, in data set [6], the “Adult worms per animal” value is reported as 31.3 (11.8), the “Female worms per animal” value is 15.9 (5.7), the “Male worms per animal” value is reported as 15.4 (6.1) and the “Mf per animal (peritoneal cavity)” value is 915,000 (263,235). In data set [7], the IC50 – broadly, the point on the concentration scale where inhibition reaches its midpoint – was found to be 460 nM. Moreover, the IC50 in data set [7] (Onchocerca volvulus, 144 h) was found to be 458 nM.
